# Reference: article PMC5027092, “Specific histamine binding activity of a new lipocalin from Hyalomma asiaticum (Ixodidae) and therapeutic effects on allergic asthma in mice” (Parasites & Vectors, 2016)
# Target: T1, Ha24 (rHa24-GST) (Hyalomma asiaticum, UniProt A0A1W5TAU9)
# T1 construct: precursor 227 aa with 26-residue signal peptide, mature 201 aa
# T1 sequence (A0A1W5TAU9 27-227): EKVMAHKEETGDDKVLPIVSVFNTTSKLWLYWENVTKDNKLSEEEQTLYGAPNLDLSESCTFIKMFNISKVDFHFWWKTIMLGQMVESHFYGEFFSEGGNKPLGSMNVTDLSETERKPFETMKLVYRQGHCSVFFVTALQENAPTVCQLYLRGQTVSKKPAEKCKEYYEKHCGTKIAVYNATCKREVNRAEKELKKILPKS
# Test: ELISA with immobilised rHa24-GST and histamine-HRP conjugate, OD […] nm
# Type: binding
# Conditions: labelled compound (histamine-HRP); protein coated at 1.25-10 ug/ml, pH 9.6; 37 °C, 2 h; GST as control
structure (smiles),measurement,value
NCCc1c[nH]cn1 [histamine],"ELISA with immobilised rHa24-GST and histamine-HRP conjugate, OD 650 nm",The results showed that rHa24 has the ability to bind with histamine
